Data from PubChem BioAssay (NCI).
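Here, GI50 denotes the concentration required for 50% inhibition of growth. TGI: total growth inhibition.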

Columns and labels:
Test in all cases: NCI tumour cell line growth inhibition, 384-well format
A549 NSCLC = tested on: A549 NSCLC
MOLT-4 leukemia = tested on: MOLT-4 leukemia
NCI-H460 NSCLC = tested on: NCI-H460 NSCLC
UACC-62 melanoma = tested on: UACC-62 melanoma
EKVX NSCLC = tested on: EKVX NSCLC
MALME-3M melanoma = tested on: MALME-3M melanoma
HL-60(TB) leukemia = tested on: HL-60(TB) leukemia
NCI-H322M lung = tested on: NCI-H322M lung
SF-268 CNS = tested on: SF-268 CNS
M14 melanoma = tested on: M14 melanoma
HCC-2998 colon = tested on: HCC-2998 colon
BT-549 breast = tested on: BT-549 breast
HCT-116 colon = tested on: HCT-116 colon
HCT-15 colon = tested on: HCT-15 colon
SK-MEL-28 melanoma = tested on: SK-MEL-28 melanoma
COLO 205 colon = tested on: COLO 205 colon
HS 578T breast = tested on: HS 578T breast
OVCAR-3 ovarian = tested on: OVCAR-3 ovarian
NCI-H522 lung = tested on: NCI-H522 lung
NCI-H23 lung = tested on: NCI-H23 lung
PC-3 prostate = tested on: PC-3 prostate
NCI-H226 lung = tested on: NCI-H226 lung
MDA-MB-468 breast = tested on: MDA-MB-468 breast
LOX IMVI melanoma = tested on: LOX IMVI melanoma
RXF 393 renal = tested on: RXF 393 renal
SR leukemia = tested on: SR leukemia
U251 glioblastoma = tested on: U251 glioblastoma
A498 renal = tested on: A498 renal
OVCAR-8 ovarian = tested on: OVCAR-8 ovarian
SNB-75 CNS = tested on: SNB-75 CNS
HOP-92 NSCLC = tested on: HOP-92 NSCLC
SK-OV-3 ovarian = tested on: SK-OV-3 ovarian
KM12 colon = tested on: KM12 colon
HT29 colon = tested on: HT29 colon
SNB-19 CNS = tested on: SNB-19 CNS
MCF7 breast = tested on: MCF7 breast
ACHN renal = tested on: ACHN renal
UACC-257 melanoma = tested on: UACC-257 melanoma
MDA-MB-231 breast = tested on: MDA-MB-231 breast
DU-145 prostate = tested on: DU-145 prostate
SN12C renal = tested on: SN12C renal
RPMI-8226 leukemia = tested on: RPMI-8226 leukemia
SK-MEL-5 melanoma = tested on: SK-MEL-5 melanoma
CAKI-1 renal = tested on: CAKI-1 renal

For `CCn1c(-c2nonc2N)nc2c(C#CC(C)(C)O)ncc(OC[C@H]3CCCNC3)c21`, which GI50 (A549 NSCLC) is on record?
The GI50 was 4150 nM.

What about the TGI (A549 NSCLC) of the same compound?
The TGI was 22700 nM.

What about the GI50 (MOLT-4 leukemia) of the same compound?
The GI50 was < 10 nM.

What about the TGI (MOLT-4 leukemia) of the same compound?
The TGI was < 10 nM.

What about the GI50 (NCI-H460 NSCLC) of the same compound?
Its GI50 is 195 nM.

What about the TGI (NCI-H460 NSCLC) of the same compound?
Its TGI is 11000 nM.

What about the GI50 (UACC-62 melanoma) of the same compound?
The GI50 was 220 nM.

And the TGI (UACC-62 melanoma)?
The TGI was 16800 nM.

What about the GI50 (EKVX NSCLC) of the same compound?
The GI50 was 4790 nM.

And the TGI (EKVX NSCLC)?
Its TGI is 26500 nM.

What about the GI50 (MALME-3M melanoma) of the same compound?
Its GI50 is 183 nM.

What about the TGI (MALME-3M melanoma) of the same compound?
The TGI was 17600 nM.

And the GI50 (HL-60(TB) leukemia)?
Its GI50 is < 10 nM.

What about the TGI (HL-60(TB) leukemia) of the same compound?
The TGI was 101 nM.

What about the GI50 (NCI-H322M lung) of the same compound?
Its GI50 is 26.8 nM.

And the TGI (NCI-H322M lung)?
The TGI was 18400 nM.

And the GI50 (SF-268 CNS)?
Its GI50 is 6190 nM.

And the TGI (SF-268 CNS)?
Its TGI is 20200 nM.

And the GI50 (M14 melanoma)?
The GI50 was < 10 nM.

And the TGI (M14 melanoma)?
Its TGI is < 10 nM.

And the GI50 (HCC-2998 colon)?
The GI50 was < 10 nM.

And the TGI (HCC-2998 colon)?
Its TGI is 20.9 nM.

And the GI50 (BT-549 breast)?
The GI50 was < 10 nM.

What about the TGI (BT-549 breast) of the same compound?
The TGI was 2130 nM.

What about the GI50 (HCT-116 colon) of the same compound?
The GI50 was 1470 nM.

And the TGI (HCT-116 colon)?
Its TGI is 17700 nM.

And the GI50 (HCT-15 colon)?
Its GI50 is 984 nM.

And the TGI (HCT-15 colon)?
Its TGI is 64200 nM.

And the GI50 (SK-MEL-28 melanoma)?
Its GI50 is 4690 nM.

What about the TGI (SK-MEL-28 melanoma) of the same compound?
Its TGI is 20400 nM.

And the GI50 (COLO 205 colon)?
The GI50 was 116 nM.

And the TGI (COLO 205 colon)?
The TGI was 12100 nM.

What about the GI50 (HS 578T breast) of the same compound?
The GI50 was < 10 nM.

And the TGI (HS 578T breast)?
Its TGI is 14200 nM.

What about the GI50 (OVCAR-3 ovarian) of the same compound?
Its GI50 is 198 nM.

And the TGI (OVCAR-3 ovarian)?
The TGI was 15200 nM.

What about the GI50 (NCI-H522 lung) of the same compound?
The GI50 was 1250 nM.

And the TGI (NCI-H522 lung)?
The TGI was 4730 nM.

What about the GI50 (NCI-H23 lung) of the same compound?
Its GI50 is < 10 nM.

What about the TGI (NCI-H23 lung) of the same compound?
Its TGI is 13600 nM.

And the GI50 (PC-3 prostate)?
Its GI50 is 84.6 nM.

And the TGI (PC-3 prostate)?
Its TGI is 14200 nM.

What about the GI50 (NCI-H226 lung) of the same compound?
Its GI50 is 4620 nM.

What about the TGI (NCI-H226 lung) of the same compound?
Its TGI is 18500 nM.

What about the GI50 (MDA-MB-468 breast) of the same compound?
Its GI50 is 99 nM.

What about the TGI (MDA-MB-468 breast) of the same compound?
Its TGI is 19600 nM.

What about the GI50 (LOX IMVI melanoma) of the same compound?
The GI50 was 1050 nM.

And the TGI (LOX IMVI melanoma)?
The TGI was 8420 nM.

What about the GI50 (RXF 393 renal) of the same compound?
The GI50 was < 10 nM.

What about the TGI (RXF 393 renal) of the same compound?
Its TGI is 19200 nM.

And the GI50 (SR leukemia)?
Its GI50 is < 10 nM.

And the TGI (SR leukemia)?
Its TGI is < 10 nM.

And the GI50 (U251 glioblastoma)?
The GI50 was 1080 nM.

And the TGI (U251 glioblastoma)?
The TGI was 14400 nM.

What about the GI50 (A498 renal) of the same compound?
The GI50 was < 10 nM.

What about the TGI (A498 renal) of the same compound?
The TGI was < 10 nM.

What about the GI50 (OVCAR-8 ovarian) of the same compound?
The GI50 was < 10 nM.

What about the TGI (OVCAR-8 ovarian) of the same compound?
The TGI was 17600 nM.

What about the GI50 (SNB-75 CNS) of the same compound?
The GI50 was 216 nM.

What about the TGI (SNB-75 CNS) of the same compound?
The TGI was 17100 nM.

What about the GI50 (HOP-92 NSCLC) of the same compound?
Its GI50 is < 10 nM.

What about the TGI (HOP-92 NSCLC) of the same compound?
Its TGI is 21700 nM.

What about the GI50 (SK-OV-3 ovarian) of the same compound?
The GI50 was 42.2 nM.

And the TGI (SK-OV-3 ovarian)?
Its TGI is 12700 nM.

And the GI50 (KM12 colon)?
The GI50 was 18 nM.

And the TGI (KM12 colon)?
The TGI was 14400 nM.

And the GI50 (HT29 colon)?
Its GI50 is 199 nM.

And the TGI (HT29 colon)?
The TGI was 16500 nM.

What about the GI50 (SNB-19 CNS) of the same compound?
Its GI50 is 495 nM.

And the TGI (SNB-19 CNS)?
The TGI was 15200 nM.

What about the GI50 (MCF7 breast) of the same compound?
The GI50 was 26.7 nM.

What about the TGI (MCF7 breast) of the same compound?
The TGI was 16600 nM.

What about the GI50 (ACHN renal) of the same compound?
Its GI50 is < 10 nM.

What about the TGI (ACHN renal) of the same compound?
The TGI was 129 nM.

And the GI50 (UACC-257 melanoma)?
The GI50 was 2000 nM.

What about the TGI (UACC-257 melanoma) of the same compound?
The TGI was 16700 nM.

And the GI50 (MDA-MB-231 breast)?
The GI50 was 2620 nM.

What about the TGI (MDA-MB-231 breast) of the same compound?
Its TGI is 16700 nM.

What about the GI50 (DU-145 prostate) of the same compound?
The GI50 was 93.8 nM.

And the TGI (DU-145 prostate)?
The TGI was 13800 nM.

And the GI50 (SN12C renal)?
Its GI50 is 90.8 nM.

And the TGI (SN12C renal)?
Its TGI is 12400 nM.

What about the GI50 (RPMI-8226 leukemia) of the same compound?
The GI50 was < 10 nM.

What about the TGI (RPMI-8226 leukemia) of the same compound?
The TGI was 283 nM.

What about the GI50 (SK-MEL-5 melanoma) of the same compound?
The GI50 was < 10 nM.

And the TGI (SK-MEL-5 melanoma)?
Its TGI is 190 nM.

What about the GI50 (CAKI-1 renal) of the same compound?
Its GI50 is 411 nM.

What about the TGI (CAKI-1 renal) of the same compound?
The TGI was 16700 nM.
